{"source": "paper PMC7642680", "about": "“The Nontypeable Haemophilus influenzae Major Adhesin Hia Is a Dual-Function Lectin That Binds to Human-Specific Respiratory Tract Sialic Acid Glycan Receptors” (mBio, 2020)", "key": {"[1]": {"biological_target": "T1, Hia (full-length, expressed on E. coli BL21) (Haemophilus influenzae, UniProt Q8GM79)", "T1 construct": "trimeric autotransporter", "experiment": "SPR, Hia-expressing BL21 cells immobilised (Biacore C1 chip)", "format": "cell-based", "settings": "1x PBS pH 7.4; single-cycle kinetics; whole cells"}, "[2]": {"biological_target": "Hia (full-length, expressed on E. coli BL21) (Haemophilus influenzae, UniProt Q8GM79, D618K)", "settings": "1x PBS pH 7.4, whole cells", "source_text": "(§1) SPR, Hia-expressing BL21 cells immobilised (Biacore C1 chip) on Hia (full-length, expressed on E. coli BL21)"}, "[3]": {"biological_target": "T2, Hia (full-length, expressed on E. coli BL21) (Haemophilus influenzae, UniProt Q8GM79, A619R)", "settings": "read-out: 2-3 SLN-Ac; 1x PBS pH 7.4; whole cells", "source_text": "as §1"}, "[4]": {"biological_target": "Hia BD1 (binding domain 1) (Haemophilus influenzae, UniProt Q8GM79)", "experiment": "SPR, purified BD1 immobilised (Biacore CM5 amine capture)", "settings": "1x PBS pH 7.4; single-cycle kinetics"}, "[5]": {"biological_target": "T2, Hia (full-length, expressed on E. coli BL21)", "settings": "read-out: NB, OneStep injection at 10 μM, whole cells", "source_text": "SPR, OneStep injection, Hia-expressing BL21 cells on Hia (full-length, expressed on E. coli BL21)"}}, "note": "Read-outs that look alike come from different tables or passages of the source.", "data": [{"compound": "CC(=O)N[C@H]1[C@H](O[C@H]2[C@@H](O)[C@@H](CO)O[C@@H](O[C@H]3[C@H](O)[C@@H](O)C(O)O[C@@H]3CO)[C@@H]2O)O[C@H](CO)[C@@H](O[C@@H]2O[C@H](CO)[C@H](O)[C@H](O[C@@]3(C(=O)O)C[C@H](O)[C@@H](NC(C)=O)[C@H]([C@H](O)[C@H](O)CO)O3)[C@H]2O)[C@@H]1O", "note": "(stereo partly shown) [2-3 Ac-SLNnT]", "values": [{"measurement": "Kd", "setting": "[1]", "result": "2.03 ± 1.49", "unit": "µM"}]}, {"compound": "CC(=O)N[C@H]1[C@H](O[C@H]2[C@@H](O)[C@@H](CO)O[C@@H](O[C@H]3[C@H](O)[C@@H](O)C(O)O[C@@H]3CO)[C@@H]2O)O[C@H](CO)[C@@H](O[C@@H]2O[C@H](CO)[C@H](O)[C@H](O[C@@]3(C(=O)O)C[C@H](O)[C@@H](NC(=O)CO)[C@H]([C@H](O)[C@H](O)CO)O3)[C@H]2O)[C@@H]1O", "note": "(stereo partly shown) [2-3 Gc-SLNnT]", "values": [{"measurement": "Kd", "setting": "[1]", "result": "5.44 ± 1.11", "unit": "µM"}]}, {"compound": "CC(=O)N[C@H]1[C@H]([C@H](O)[C@H](O)CO)O[C@@](O[C@H]2[C@@H](O)[C@@H](CO)O[C@@H](O[C@H]3[C@H](O)[C@@H](NC(C)=O)C(O)O[C@@H]3CO)[C@@H]2O)(C(=O)O)C[C@@H]1O", "note": "(stereo partly shown) [2-3 SLN-Ac]", "values": [{"measurement": "Kd", "setting": "[1]", "result": "2.03 ± 0.443", "unit": "µM"}, {"measurement": "Kd", "setting": "[2]; read-out: 2-3 SLN-Ac", "result": "0.842 ± 0.178", "unit": "µM"}, {"measurement": "Kd", "setting": "[3]", "result": "3.04 ± 0.7", "unit": "µM"}]}, {"compound": "CC(=O)N[C@H]1C(O)O[C@H](CO)[C@@H](O[C@@H]2O[C@H](CO)[C@H](O)[C@H](O[C@@]3(C(=O)O)C[C@H](O)[C@@H](NC(=O)CO)[C@H]([C@H](O)[C@H](O)CO)O3)[C@H]2O)[C@@H]1O", "note": "(stereo partly shown) [2-3 SLN-Gc]", "values": [{"measurement": "Kd", "setting": "[1]", "result": "10.1 ± 0.32", "unit": "µM"}]}, {"compound": "CC(=O)N[C@H]1[C@H]([C@H](O)[C@H](O)CO)O[C@](OC[C@H]2O[C@@H](O[C@H]3[C@H](O)[C@@H](NC(C)=O)C(O)O[C@@H]3CO)[C@H](O)[C@@H](O)[C@H]2O)(C(=O)O)C[C@@H]1O", "note": "(stereo partly shown) [2-6 SLN-Ac]", "values": [{"measurement": "Kd", "setting": "[1]", "result": "0.185 ± 0.0599", "unit": "µM"}, {"measurement": "Kd", "setting": "[2]; read-out: 2-6 SLN-Ac", "result": "0.021 ± 0.001", "unit": "µM"}, {"measurement": "Kd", "setting": "[4]", "result": "0.0649 ± 0.0056", "unit": "µM"}, {"measurement": "Kd", "setting": "[5]", "result": "> 10", "unit": "µM"}]}]}
